Experiments:
CEBPβ = CEBPβ expression by real time PCR in HL-60 cells; assay type: cell-based, human; settings: 1, 3, or 5 days
Protocol: (§1) FIG. 11 illustrates graphs showing securinine and 6BT downregulate c-myc expression and upregulate CEBPB. HL-60 cells were treated with the indicated compounds for 1, 3, or 5 days and total RNA was prepared. The relative expression of c-myc and CEPβ was determined by real time PCR.

[1] = Toxicity, tolerability and seizures in mice
Protocol: (§2) In order to further assess the in vivo potential of 6BT and Securinine, mouse xenograft experiments were performed. In the first model, the ability of 6BT and Securinine to inhibit established HL-60 subcutaneous leukemic tumor growth in nude mice was assessed. […] In the second model system, the ability of 6BT to prevent either HL-60 or MV-411 tumor formation in nude mice was assessed.
(§3) This Example assed the effects of securinine and its analogues in mice. […] HL-60 cell is an AML cell line commonly used for in-vitro studies and typically they are classified as M2 subtype. […] Therefore this was the highest dose that could be safely utilized.
We performed a preliminary test with the two most promising analogues, compound 2A and compound 2B to verify their safety.

60 cancer cell lines = settings: highest concentration used 100 μM; cited from earlier work
HL-60 cells [2] = assay: Morphology, cytospin with Wright-Giemsa stain; assay type: cell-based, human; settings: 4 days
Protocol: HL-60 cells were treated with the indicated compounds for 4 days. Cytospin preparations were prepared and the cells were stained with Wright-Giemsa stain.

HL-60 cells [3] = assay: Cell cycle, propidium iodide flow cytometry; assay type: cell-based, human; settings: 4 days
Protocol: HL-60 cells were treated with the indicated compounds for 4 days and the cells were stained with propidium iodide and analyzed by flow cytometry.

HL-60 cells [4] = assay: NBT reduction assay of differentiation in HL-60 cells; assay type: cell-based, human
Text: The NBT screen works due to changes in the oxidoreductases during differentiation that lead to increases in rates of NBT reduction. NBT is reduced due to the production of superoxide that is catalyzed by an NADPH oxidase. […] A quantitative NBT reduction assay is ideal for this type of screen as it is simple, sensitive, quantitative, requires minimal cells, has been proven to have low well to well variability, and the amount of reduced NBT is proportional to the number of cells reducing the dye as well as the amount reduced by each cell.
[…] […] Differentiation is determined in the 96 well plates by incubating the cells with 1 mg/ml of NBT and 200 ng/ml of PMA as the stimulant for the respiratory burst for 35 minutes at 37° C. The reaction can then be stopped with HCL and the formazan will be solubilized with DMSO. Finally, the reaction mixture will be read spectrophotometricaly at 560 nm in a plate reader.
[…] […] Differentiation is determined in the 96 well plates by incubating the cells with 1 mg/ml of NBT and 200 ng/ml of PMA as the stimulant for the respiratory burst for 35 minutes at 37° C. The reaction will then be stopped with HCL and the formazan will be solubilized with DMSO. Finally, the reaction mixture will be read spectrophotometricaly at 560 nm in a plate reader.
The assays are done using the colorimetric process. The NBT reduction assay measures the respiratory burst and is done by stimulating the respiratory burst in cells with PMA and then looking for a color change in the NBT dye.

p38delta = assay: Gene expression (microarray, real time PCR) in HL-60 cells; assay type: cell-based, human
Protocol: FIG. 14 illustrates graphs showing 6BT and securinine regulate the expression of genes that may play important roles in myeloid differentiation. HL-60 cells were treated with the indicated compounds for 1 or 3 days and total RNA was prepared. The relative expression of the indicated genes was assessed by real time PCR.
In order to further assess the signaling pathways of 6BT and securinine as well as to further elucidate the myeloid differentiation program in general, gene microarray studies were performed. These initial studies assessed the gene expression pattern at 16 and 72 hours after treatment. […] Several of these genes are known to be involved in the differentiation of non-hematopoietic cells such as neuron, muscle, and or keratinocyte differentiation. Selected examples of genes whose expression is strongly regulated by securinine and 6BT that have been verified is seen in […].

[5] = system: normal human lymphocytes, normal human bone marrow, mouse embryonic fibroblasts, and human umbilical vein endothelial cells; assay: Toxicity on normal cells; assay type: cell-based
Text: In order to further assess the toxicity of 6BT and Securinine, normal human lymphocytes, normal human bone marrow, mouse embryonic fibroblasts, and human umbilical vein endothelial cells were examined.

p44/p42 and p38 = assay: Phospho-specific Western blot of p44/p42 and p38 in HL-60 cells; assay type: cell-based, human; settings: 15 to 60 minutes
Protocol: FIG. 13 illustrates an immunoblot showing 6BT and Securinine activate both p44/p42 and p38. HL-60 cells were treated with the indicated compounds for 15, 20, 46, or 60 minutes and the cells were lysed. Western blot analysis was performed with phospho-specific antibodies to p44/p42 and p38 as well as the actin anibody.

OCI-AML3 cells = assay: NBT reduction assay in OCI-AML3 cells; assay type: cell-based; settings: 4 days
Protocol: The two most promising compounds (compound 2A and compound 2B) were further tested for their differentiation activity in several additional AML cell lines as compared to securinine (FIG. 17). […] In all three cell lines tested, a dose of only 2.5 uM of compound 2B was sufficient to induce nearly complete differentiation.
The above indicated cells were treated for 4 days and the NBT reduction assay was performed. The X-axis refers to the cell treatments and the Y-axis denotes the percentage of differentiation as measured by the NBT Reduction assay.

[6] = system: HL-60 subcutaneous tumors; assay: Established HL-60 subcutaneous tumor xenograft in nude mice; assay type: in vivo
Protocol: Nude mice (5 per experimental group) were injected with 5×10^7 HL-60 cells bilaterally into the flank. 9 days after tumor cell inoculation, the indicated drugs were injected I.P. three times a week for 3 weeks. […] Representative picture of the mice at the end of the study period (B). Representative picture of tumors dissected from the indicated mice. (C). Average weights of tumors dissected from all mice (D).
as §2, §3
Next we repeated the mouse xenograft experiments using i.p. drug administration (20 mg/kg), but with twice a day dosing again using HL-60 cell tumors.
Securinine (20 mg/kg) or vehicle ([…]) was injected i.p. into mice starting 10 days after HL-60 cell inoculation bilaterally into the flanks of nude mice (5 mice per group).

c-myc = c-myc expression by real time PCR in HL-60 cells; assay type: cell-based, human; settings: 1, 3, or 5 days
Protocol: as §1

p21 = p21 Western blot in HL-60 cells; assay type: cell-based, human; settings: 1, 3, or 5 days
Protocol: (§4) HL-60 cells were treated with the indicated compounds for 1, 3, or 5 days and cells were lysed. Western blot analysis was performed with p21, Bcl-2, and actin antibodies.

[7] = system: primary patient leukemic samples; assay: Differentiation and cell death in other AML cell lines and primary patient leukemic samples; assay type: cell-based, human
Protocol: FIGS. 7(A-B) illustrate 6BT and securinine have potent differentiation and cell death effects on primary leukemic samples. Primary patient leukemic samples were stained with CD34+ and sorted by flow cytometry. Leukemic cells were treated with the indicated compounds (6BT […]) for up to 7 days. A. Representative pictures showing morphological differentiation of primary patient samples B. 6BT and Securinine treated primary leukemic cells show either differentiation by NBT reduction or cell death.
In several cases, the compounds were able to induce a higher amount of differentiation than ATRA. It should be noted, that though ATRA is only clinically useful for APL, it is well known to potently induce the differentiation of many other AML cell lines in vitro. […] Though the exact mechanisms are not yet clear, certain leukemic cells appear to preferentially undergo cell death in response to 6BT and Securinine prior to full differentiation.
We then tested the effects of securinine on patient samples. […] Unfortunately, many of the patient samples were not suitable for analysis. A significant portion of the cells that were obtained were either nonviable or contaminated with bacteria.

[8] = known; cited from earlier work
Bcl-2 = Bcl-2 Western blot in HL-60 cells; assay type: cell-based, human; settings: 1, 3, or 5 days
Protocol: as §4

HL-60 cells [9] = assay: Flow cytometry of CD11b and CD14 cell surface markers; assay type: cell-based, human
Protocol: HL-60 cells were treated with the indicated compounds for 4 days, the cells were stained with CD11b-PE and CD14-FITC, and flow cytometric analysis was performed.

## O=C1C=C2C=C[C@@H]3C[C@@]2(O1)[C@H]1CCCCN31 [Securinine]
CEBPβ
  CEBPβ expression: time-dependent upregulation of CEBPβ
[1]; 20 mg/kg
  toxicity in mice: no evident toxicities
[1]; dose approximately two fold higher than 20 mg/kg
  seizures in mice: lead to seizures
60 cancer cell lines
  average LD50 across the 60 cancer cell lines: 97 µM
HL-60 cells [2]
  morphologic changes: clear morphologic changes suggestive of monocytic differentiation
HL-60 cells [3]
  cell cycle phase in which cells accumulate: accumulation of cells in G0/G1
HL-60 cells [4]; HL-60 cells, 4 days (FIG. 3)
  cells differentiated, NBT reduction assay: ~95%
HL-60 cells [4]; leukemic cells in our studies
  concentration at which significant differentiation or cell death effects upon the leukemic cells occur: ~10 µM
HL-60 cells [4]; low concentrations, NBT reduction assay
  enhancement of differentiation induced by ATRA and decitabine: capable of enhancing the differentiation induced by both ATRA and decitabine
p38delta
  p38delta expression: upregulated
[5]
  toxicity on normal cells: induced cell death occurred at doses higher than those required for activity on leukemia cells
p44/p42 and p38
  phosphorylation of p44/p42 and p38: rapid phosphorylation of p44/p42 and p38
OCI-AML3 cells
  differentiation activity in OCI-AML3 cells: modest differentiation activity
[6]; 20 mg/kg i.p. twice a day
  average tumor size smaller than vehicle treated mice at end of study: more than 75%
[6]; 20 mg/kg once a day
  effect on growth of HL-60 subcutaneous tumors: could not detect any significant effects
[6]; first model, I.P. three times a week for 3 weeks from day 9
  inhibition of established HL-60 subcutaneous leukemic tumor growth: not Securinine was found to have significant in vivo activity
c-myc
  c-myc expression: potently downregulate c-myc
p21
  p21 protein level: upregulated
[7]
  cell death of specific leukemic cell lines and primary patient samples: quicly undergo cell death
[7]; 6BT 10 mM, Securinine 15 mM, up to 7 days (FIG. 7)
  differentiation of other AML cell lines and primary patient leukemic samples: effective in differentiating other AML cell lines besides HL-60 cells, as well as primary patient leukemic samples
[7]; samples suitable for analysis
  leukemia patient samples in which differentiation was induced: 8 of 10
[8]
  metabolism in vivo: extremely rapid metabolism in vivo
  seizures: lead to seizures
Bcl-2
  Bcl-2 protein level: downregulation of Bcl-2
HL-60 cells [9]; 10 μM, 4 days
  CD11b positive: 87%
  CD14 positive: 86%
HL-60 cells [9]; with ATRA and decitabine, data not shown
  synergy in upregulation of CD11b: synergize in the upregulation of CD11b

Reference: patent US10300049B2, “Myeloid differentiation inducing agents” (CASE WESTERN RESERVE UNIVERSITY, priority 2007, dated 2019)
